The test system of test [1] is DRG neurons. Kind of test: Calcium imaging of cultured dissociated DRG neurons. Conditions: for effect on CQ-induced [Ca2+]i increase: WT DRG neurons. The test is classed as cell-based, mouse.
Description: Dorsal root ganglia from all spinal levels of 4-week old mice or rats were collected in cold DH10 (90% DMEM/F-12, 10% FBS, 100 U/ml penicillin, and 100 μg/ml Streptomycin, Gibco) and treated with enzyme solution (5 mg/ml Dispase, 1 mg/ml Collagenase Type I in HPBS without Ca^++ and Mg^++, Gibco) at 37° C. Following trituration and centrifugation, cells were resuspended in DH10, plated on glass cover slips coated with poly-D-lysine (0.5 mg/ml, Stoughton, Mass.) and laminin (10 μg/ml, Invitrogen), cultured in an incubator (95% O2 and 5% CO2) at 37° C. and used within 24 hours.
Test [2] deals with T1, MrgprA3 (Mus musculus, UniProt Q91WW3).
T1 sequence (Q91WW3 1-302): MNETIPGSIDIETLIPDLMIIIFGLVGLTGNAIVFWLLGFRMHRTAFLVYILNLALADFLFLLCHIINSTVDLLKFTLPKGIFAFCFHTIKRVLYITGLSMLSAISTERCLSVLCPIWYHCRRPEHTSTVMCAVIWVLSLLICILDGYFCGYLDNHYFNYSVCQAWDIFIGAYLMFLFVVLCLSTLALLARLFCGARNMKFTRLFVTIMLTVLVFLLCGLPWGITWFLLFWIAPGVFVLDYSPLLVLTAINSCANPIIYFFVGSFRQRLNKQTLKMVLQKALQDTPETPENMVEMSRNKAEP
Kind of test: Calcium imaging of HEK293 cells transfected with Mrgpr-GFP constructs. The test is classed as cell-based. Also noted: expressed in transfected cells; host or cells: HEK293. The source says:
(§1) Each of the twelve Mrgprs that were deleted in Mrgpr-clusterΔ^−/− mice were cloned into a mammalian expression vector (FIG. 1A), and transfected individually into human embryonic kidney (HEK) 293 cells. By fusing green fluorescent protein (GFP) to the C-termini of the Mrgpr coding sequences, both transfected cells and the proper membrane localization of the receptors was visualized. […] Increased [Ca^2+]i resulting from activation of the receptors was monitored by calcium imaging.
(§2) Serotonin also has a bicyclic structure. […] Quinine is another drug used to treat malaria and its side effects also include itch. However, it is unclear if quinine-induced itch is an allergic response.
(§3) HEK293 cells were cultured in growth medium consisted of 90% DMEM, 10% fetal bovine serum, 100 U/ml penicillin, and 100 μg/ml Streptomycin (Invitrogen) at 37° C. in the presence of […] and 5% CO2. HEK293 cells were transfected with Mrgpr-expression constructs using Lipofectamine 2000 (Invitrogen) according to the manufacturer's protocol.

Test [3] deals with histamine H1 receptor (Homo sapiens, UniProt P35367). The conditions noted are these: HEK293 cells; histamine 50 μM.
Description: as §1, §3

The test system of test [4] is mice. Briefly: Scratching behavior after pruritogen injection in mice. The test is classed as in vivo, mouse. Conditions: for scratching in Mrgpr-clusterΔ-/- mice compared with WT: 30 min, histamine 10 μmol, compound 48/80 100 μg/50 μl, CQ 200 μg/50 μl, BAM8-22 50 μl of 1 mM. The source says:
Kuraishi et al., (1995). […] F. (2007) Nature 448, 700-703).

The target in test [5] is T2, MrgprX1 (Homo sapiens, UniProt Q96LB2). Kind of test: Calcium imaging of HEK293 cells transfected with Mrgpr-GFP constructs. The test is classed as cell-based. The conditions noted are these: BAM8-22 2 μM. As for the experimental part:
The human Mrgpr family (i.e. MrgprXs) is much smaller than the murine family.
as §2, §3

The subject of test [6] is rats. Briefly: Scratching behavior after intradermal injection in rats. The conditions noted are these: 500 μg/50 μl, first 30 min.
For test [7], the target named is T3, MrgprC11 (Mus musculus, UniProt Q8CIP3).
T3 construct: expressed in transfected cells; host or cells: HEK293
T3 sequence (Q8CIP3 1-322): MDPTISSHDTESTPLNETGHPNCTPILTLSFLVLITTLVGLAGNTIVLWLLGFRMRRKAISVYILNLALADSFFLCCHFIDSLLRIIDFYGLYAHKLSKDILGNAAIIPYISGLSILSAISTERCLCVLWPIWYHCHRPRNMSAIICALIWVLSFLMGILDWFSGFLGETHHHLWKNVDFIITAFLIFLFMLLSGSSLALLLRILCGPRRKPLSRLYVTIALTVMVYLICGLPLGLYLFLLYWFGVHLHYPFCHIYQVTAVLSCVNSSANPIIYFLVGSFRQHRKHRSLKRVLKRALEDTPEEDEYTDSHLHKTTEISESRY
Briefly: Calcium imaging of HEK293 cells transfected with Mrgpr-GFP constructs. The test is classed as cell-based. Conditions: BAM8-22 2 μM.
Description: as §1
(§4) HEK293 cells were transfected with Mrgpr-expression constructs using Lipofectamine 2000 (Invitrogen) according to the manufacturer's protocol.

Test [8] has as its target T2, MrgprX1. Kind of test: Rescue: Mrgpr-clusterΔ-/- DRG neurons electroporated with Mrgpr construct. The test is classed as cell-based, mouse.
Description: (§5) To determine whether MrgprA3 or MrgprX1 can rescue the phenotypes of DRG neurons from Mrgpr-clusterΔ^−/− mice, the Mrgpr expression constructs used in the heterologous studies were electroporated into dissociated adult DRG neurons from these mice. After 24 hour in culture, expression and membrane localization of the transfected Mrgprs in the mutant neurons could be readily visualized by GFP (FIG. 8G).
Test [9] concerns the target T4, rat MrgprC (Rattus norvegicus, UniProt Q8R4G1).
T4 sequence (Q8R4G1 1-323): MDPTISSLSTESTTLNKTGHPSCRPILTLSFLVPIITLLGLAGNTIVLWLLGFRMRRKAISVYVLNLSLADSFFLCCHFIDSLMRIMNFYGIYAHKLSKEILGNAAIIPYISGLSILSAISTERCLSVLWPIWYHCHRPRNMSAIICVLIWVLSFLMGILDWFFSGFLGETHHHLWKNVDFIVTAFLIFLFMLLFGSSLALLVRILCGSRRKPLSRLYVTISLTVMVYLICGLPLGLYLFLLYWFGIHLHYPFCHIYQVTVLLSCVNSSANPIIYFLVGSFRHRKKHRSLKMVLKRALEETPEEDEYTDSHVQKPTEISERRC
Briefly: Rescue: Mrgpr-clusterΔ-/- DRG neurons electroporated with rat Mrgpr, calcium imaging. The conditions noted are these: BAMS-22 10 μM.

Test [10] concerns the target T5, MrgprA1 (Mus musculus, UniProt Q91WW5).
T5 sequence (Q91WW5 1-304): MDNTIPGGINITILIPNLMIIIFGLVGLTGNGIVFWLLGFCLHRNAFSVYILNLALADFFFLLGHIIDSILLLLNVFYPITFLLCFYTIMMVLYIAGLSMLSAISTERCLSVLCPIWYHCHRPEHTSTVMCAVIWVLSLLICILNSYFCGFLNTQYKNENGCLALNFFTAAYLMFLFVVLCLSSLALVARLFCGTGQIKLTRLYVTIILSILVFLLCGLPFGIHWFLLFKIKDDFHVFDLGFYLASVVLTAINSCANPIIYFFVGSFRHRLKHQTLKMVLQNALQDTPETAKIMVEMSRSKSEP
Kind of test: Calcium imaging of HEK293 cells transfected with Mrgpr-GFP constructs. The test is classed as cell-based. Also noted: expressed in transfected cells. Conditions: CQ 1 mM, FMRF 2 μM.
Description: as §1, §4

In test [11] the target is T5, MrgprA1. Briefly: Rescue: Mrgpr-clusterΔ-/- DRG neurons electroporated with Mrgpr construct. The test is classed as cell-based. Also on record: expressed in transfected cells; host or cells: dissociated adult DRG neurons of Mrgpr-cluster-deleted mice. The conditions noted are these: FMRF 2 μM.
Description: as §5
Test [12] addresses T6, MrgprA4 (Mus musculus, UniProt Q91WW2).
T6 construct: expressed in transfected cells; host or cells: HEK293
T6 sequence (Q91WW2 1-313): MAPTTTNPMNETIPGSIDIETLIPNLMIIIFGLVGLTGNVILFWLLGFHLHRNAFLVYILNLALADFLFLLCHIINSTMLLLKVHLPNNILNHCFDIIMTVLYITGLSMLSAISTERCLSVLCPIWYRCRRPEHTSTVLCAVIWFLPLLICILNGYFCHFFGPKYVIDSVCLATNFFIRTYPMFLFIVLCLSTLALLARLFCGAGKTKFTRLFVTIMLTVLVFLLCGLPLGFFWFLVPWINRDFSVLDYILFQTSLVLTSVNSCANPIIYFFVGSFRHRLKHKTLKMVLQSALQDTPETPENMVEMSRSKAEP
Briefly: Calcium imaging of HEK293 cells transfected with Mrgpr-GFP constructs. The test is classed as cell-based. The conditions noted are these: NPFF 2 μM.
Description: as §1, §4

T2 sequence (Q96LB2 whole entry): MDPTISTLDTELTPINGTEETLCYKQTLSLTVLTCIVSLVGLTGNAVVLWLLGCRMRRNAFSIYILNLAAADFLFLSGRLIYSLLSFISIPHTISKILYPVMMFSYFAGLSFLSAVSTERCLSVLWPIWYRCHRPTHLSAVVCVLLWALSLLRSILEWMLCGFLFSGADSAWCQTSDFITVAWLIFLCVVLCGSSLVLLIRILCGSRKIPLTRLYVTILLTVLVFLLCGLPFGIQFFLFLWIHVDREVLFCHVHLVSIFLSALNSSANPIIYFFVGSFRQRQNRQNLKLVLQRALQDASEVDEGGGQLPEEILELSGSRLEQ
Chain of histamine H1 receptor (P35367 whole entry, species assumed): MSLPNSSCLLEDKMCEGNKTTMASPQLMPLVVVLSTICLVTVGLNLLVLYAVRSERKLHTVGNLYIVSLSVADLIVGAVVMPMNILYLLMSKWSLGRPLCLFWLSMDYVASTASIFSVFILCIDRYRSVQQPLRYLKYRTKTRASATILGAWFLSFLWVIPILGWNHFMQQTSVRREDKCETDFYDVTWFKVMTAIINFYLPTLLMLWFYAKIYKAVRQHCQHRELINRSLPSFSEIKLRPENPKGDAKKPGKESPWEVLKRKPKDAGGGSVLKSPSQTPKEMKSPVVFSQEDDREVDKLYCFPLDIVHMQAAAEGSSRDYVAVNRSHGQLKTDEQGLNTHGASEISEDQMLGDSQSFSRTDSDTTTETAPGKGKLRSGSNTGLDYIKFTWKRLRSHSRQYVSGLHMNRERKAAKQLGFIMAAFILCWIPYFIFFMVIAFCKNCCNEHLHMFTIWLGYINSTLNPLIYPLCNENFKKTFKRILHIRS

Turning to `O=C(O)CN(CCOCCOCCN(CC(=O)O)CC(=O)O)CC(=O)O` [EGTA], the “effect on CQ-induced [Ca2+]i increase” value in test [1] was “almost completely blocked”.

Regarding `N.N.N.N.N.N.N.N.N.N.N.N.N.N.[Cl-].[Cl-].[Cl-].[Cl-].[Cl-].[Cl-].[O-2].[O-2].[Ru+3].[Ru+3].[Ru+4]` [Ruthenium red], the “effect on CQ-induced [Ca2+]i increase” value in [1] is listed as “severely attenuated”.

On to `NCCc1c[nH]c2ccc(O)cc12` [Serotonin], for which the “activation of MrgprA3” value in test [2] (100 μM) is “failed to activate”.

As to `NCCc1c[nH]cn1` [histamine], the “response of histamine H1 receptor-expressing cells” value in test [3] is reported as “strong response”. For the same compound, in [4], the “scratching in Mrgpr-clusterΔ-/- mice compared with WT” value was “No significant difference”. In addition, in test [1] (histamine 50 μM), the “percentage of DRG neurons responding, WT versus mutant cultures” value is reported as “identical”. The “activation of MrgprA3 (increased [Ca2+]i)” value in [2] is “did not respond”.

With `C=C[C@H]1C[N@@]2CC[C@H]1C[C@H]2[C@H](O)c1ccnc2ccc(OC)cc12` [quinine], the “activation of MrgprA3 (increased [Ca2+]i)” value in test [2] was “weakly activates”.

In the case of `c1ccc2ncccc2c1` [quinoline], the “activation of MrgprX1 (increased [Ca2+]i)” value in test [5] was “completely failed to activate”. Also, the scratching behavior evoked result in [4] (both WT and mutant mice) is recorded as “did not evoke any scratching behavior”. For the same compound, the “activation of MrgprA3 (increased [Ca2+]i)” value in [2] is recorded as “completely failed to activate”. Further, the scratching responses entry in test [6] was “did not”.

“BAM8-22: bovine adrenal medulla peptide; MrgprC11-specific agonist (VGRPEWWMDYQKRYG)”: the “activation of MrgprX1 (increased [Ca2+]i)” value in test [5] is “responded”. Also, the “response of MrgprC11-expressing cells” value in test [7] was “responded”. In [4], the “scratching in Mrgpr-clusterΔ-/- mice compared with WT” value was “dramatic reduction”. Moreover, in test [4] (WT mice, intradermal injection, 50 μl of 1 mM), the scratching behavior evoked result is “induced strong scratching behavior”. Further, the DRG neurons responding result in test [1] (Mrgpr-clusterΔ-/- mice) is recorded as “no DRG neurons”. In [8], the “[Ca2+]i response of MrgprX1-electroporated mutant neurons” value is listed as “sensitivity”. In addition, in [2], the “activation of MrgprA3 (increased [Ca2+]i)” value is “did not respond”. In addition, the “response of rat MrgprC-electroporated Mrgpr-deficient neurons” value in test [9] was “responded”.

As to “FMRF: molluscan FMRFamide, peptide agonist of MrgprA1”, in test [10], the “response of MrgprA1-transfected cells (increased [Ca2+]i)” value is given as “all transfected cells responded”. In addition, the “[Ca2+]i response of MrgprA1-electroporated mutant neurons” value in test [11] is “strong response”.

Consider “NPFF: mammalian neuropeptide FF, peptide agonist of MrgprA4”, for which the “response of MrgprA4-expressing cells” value in [12] is recorded as “respond”.

These data come from patent US9771592B2, “Methods and compositions for treating or preventing pruritis” (The Johns Hopkins University, priority 2008, dated 2017).
